Measured values from patent US7186702B2, “Method of treating leishmaniasis using methyl-beta-cyclodextrin” (priority 2002, dated 2007).

Assays:
[1] = test system: Leishmania donovani strain AG83; test: Ligand binding assay of [3H]thymidine labeled promastigotes to macrophages; assay type: cell-based; conditions: 10 mM, J774A.1 macrophages, parasite:macrophage 10:1, assayed till 90 min
Protocol: (§1) Cells and cell culture. A murine macrophage cell line J774A.1 (American Type Culture Collection, Rockville, Md.) was used. The cells were maintained at 37° C. in RPMI-1640 medium containing 10% heat inactivated fetal calf serum (FCS)(Biological Industries, Israel) in a CO2 incubator (5% CO2) as described previously^10. The macrophages were seeded onto tissue culture plates (60 mm) at a density of 1×10^5 cells/plate and grown for 48 hrs before use.
(§2) Parasite culture. Leishmania donovani strain AG83 (MHOM/IN/1983/AG83) promastigotes were maintained at 24° C. in modified M-199 medium (Gibco/BRL) supplemented with 100 units/ml penicillin (Sigma, U.S.A.), 100 µg/ml streptomycin (Sigma, U.S.A.), and 10% heat inactivated FCS.
(§3) Cholesterol depletion and estimation. […]
(§4) Infecting macrophages with Leishmania. […] The monolayers were gently scraped to resuspend the macrophage-parasite complexes and the resulting cell suspension was analyzed either for radiolabel incorporation or macrophage-associated fluorescence. The percentage of infected macrophages was >95% after 3 hr with 5–8 amastigotes per macrophage as determined by Giemsa staining.
(§5) Labeling L. donovani AG83 promastigotes with tritium or FITC for binding studies. […] The fluorescence from the FITC-labeled parasites associated with the macrophages was analyzed with a Beckman Coulter ELITE ESP flow cytometer (Miami, Fla.) using EXPO 32 software.

[2] = test system: Leishmania donovani strain AG83; test: Intracellular amastigote count in infected macrophages by Giemsa staining; assay type: cell-based; conditions: J774A.1 macrophages
Protocol: as §1, §2
(§6) Cholesterol depletion and estimation. J774A.1 cells grown on culture dishes were depleted of cholesterol by incubating for 30 min with 5 or 10 mM methyl-β-cyclodextrin (Sigma) at 37° C. in serum free medium^13,23. Total cellular cholesterol was estimated using Amplex Red cholesterol assay kit^27 (Molecular Probes). Cholesterol values were normalized to protein levels estimated using BCA assay reagent kit^28 (Pierce).
Infecting macrophages with Leishmania. Promastigotes were added onto the macrophage monolayers (both control and cholesterol-depleted) at a parasite: macrophage ratio of 10:1. The parasite-macrophage interaction was allowed to progress for 15, 30 and 90 min at 37° C. At the end of incubation, monolayers were washed with phosphate buffered saline (PBS) to remove free parasites and placed on ice to loosen adherent cells from the plates. The monolayers were gently scraped to resuspend the macrophage-parasite complexes and the resulting cell suspension was analyzed either for radiolabel incorporation or macrophage-associated fluorescence. The percentage of infected macrophages was >95% after 3 hr with 5–8 amastigotes per macrophage as determined by Giemsa staining.

[3] = test system: Leishmania donovani strain AG83; test: Flow cytometric analysis of binding of FITC-labeled promastigotes to macrophages; assay type: cell-based; conditions: 10 mM, J774A.1 macrophages, parasite:macrophage 10:1, especially after 90 min
Protocol: as §1, §2, §3, §4, §5

J774A.1 macrophages = test: Cholesterol depletion and estimation (Amplex Red cholesterol assay kit); assay type: cell-based, murine
Protocol: as §1, §6

methyl-β-cyclodextrin
reduction in macrophage-parasite interaction (attachment) compared to control cells [1]: ~45% | number of amastigotes present compared to control cells ([2]; 5 mM, multiplicity of infection 10:1, 3 hr): concomitant reduction in the number of amastigotes | amastigotes present compared to control cells ([2]; 10 mM): 50% | reduction in the number of intracellular amastigotes ([2]; 10 mM, multiplicity of infection 10:1, 3 hr): ~50% | fluorescence associated with cholesterol-depleted macrophages compared to control (FIG. 3) [3]: pronounced reduction in fluorescence | reduction of cellular cholesterol (J774A.1 macrophages; 10 mM, 30 min incubation, total cellular cholesterol): ~40% | total cellular cholesterol upon treatment (FIG. 1) (J774A.1 macrophages; 5 or 10 mM): concentration-dependent reduction
